Activity calls are given as the source filed them.
Legend:
[1] = target: T1, Adenosine receptor A1 (Homo sapiens) (UniProt P30542); test: Binding affinity at adenosine A1 receptor at 1 uM
T1 sequence (whole entry): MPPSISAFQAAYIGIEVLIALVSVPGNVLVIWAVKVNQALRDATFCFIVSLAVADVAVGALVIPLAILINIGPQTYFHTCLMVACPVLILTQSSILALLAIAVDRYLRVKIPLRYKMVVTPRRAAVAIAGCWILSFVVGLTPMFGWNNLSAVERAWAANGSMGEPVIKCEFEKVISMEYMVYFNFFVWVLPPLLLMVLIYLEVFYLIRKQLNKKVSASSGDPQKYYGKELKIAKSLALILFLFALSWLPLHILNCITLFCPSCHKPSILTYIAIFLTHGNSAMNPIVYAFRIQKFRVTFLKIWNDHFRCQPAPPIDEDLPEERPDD

[2] = target: Beta-1 adrenergic receptor (Homo sapiens) (UniProt P08588); test: Binding affinity at adrenergic beta-1 receptor at 1 uM
Chain of Beta-1 adrenergic receptor (Homo sapiens) (P08588 whole entry, looked up): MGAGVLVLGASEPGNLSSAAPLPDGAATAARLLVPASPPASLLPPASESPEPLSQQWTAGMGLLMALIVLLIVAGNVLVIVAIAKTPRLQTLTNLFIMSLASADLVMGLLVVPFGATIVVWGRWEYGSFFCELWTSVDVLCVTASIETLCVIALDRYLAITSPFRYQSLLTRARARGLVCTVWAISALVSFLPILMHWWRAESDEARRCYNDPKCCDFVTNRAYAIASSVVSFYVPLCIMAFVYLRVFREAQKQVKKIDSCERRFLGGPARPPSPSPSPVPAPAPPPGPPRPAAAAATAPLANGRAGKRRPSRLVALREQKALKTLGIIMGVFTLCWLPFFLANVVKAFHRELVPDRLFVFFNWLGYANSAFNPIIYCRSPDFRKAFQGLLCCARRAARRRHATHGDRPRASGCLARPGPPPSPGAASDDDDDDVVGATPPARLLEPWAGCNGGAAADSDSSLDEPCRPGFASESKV

[3] = organism: Homo sapiens; test: Binding affinity at adrenergic alpha-2 receptor at 1 uM
[4] = target: T2, Type-1 angiotensin II receptor (Homo sapiens) (UniProt P30556); test: Binding affinity at AT1 receptor at 1 uM
T2 sequence (whole entry): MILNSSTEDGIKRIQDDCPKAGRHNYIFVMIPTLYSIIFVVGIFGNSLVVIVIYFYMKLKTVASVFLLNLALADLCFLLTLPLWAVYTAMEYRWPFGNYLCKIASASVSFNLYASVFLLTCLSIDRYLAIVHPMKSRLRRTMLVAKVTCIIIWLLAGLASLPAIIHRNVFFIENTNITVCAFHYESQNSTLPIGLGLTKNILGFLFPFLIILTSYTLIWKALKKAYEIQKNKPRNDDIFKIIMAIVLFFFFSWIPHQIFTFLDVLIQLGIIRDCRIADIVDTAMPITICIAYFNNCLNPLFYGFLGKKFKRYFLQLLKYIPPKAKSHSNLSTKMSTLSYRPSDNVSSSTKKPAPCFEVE

[5] = target: T3, Cholecystokinin receptor type A (Homo sapiens) (UniProt P32238); test: Binding affinity at CCKA receptor at 1 uM
T3 sequence (whole entry): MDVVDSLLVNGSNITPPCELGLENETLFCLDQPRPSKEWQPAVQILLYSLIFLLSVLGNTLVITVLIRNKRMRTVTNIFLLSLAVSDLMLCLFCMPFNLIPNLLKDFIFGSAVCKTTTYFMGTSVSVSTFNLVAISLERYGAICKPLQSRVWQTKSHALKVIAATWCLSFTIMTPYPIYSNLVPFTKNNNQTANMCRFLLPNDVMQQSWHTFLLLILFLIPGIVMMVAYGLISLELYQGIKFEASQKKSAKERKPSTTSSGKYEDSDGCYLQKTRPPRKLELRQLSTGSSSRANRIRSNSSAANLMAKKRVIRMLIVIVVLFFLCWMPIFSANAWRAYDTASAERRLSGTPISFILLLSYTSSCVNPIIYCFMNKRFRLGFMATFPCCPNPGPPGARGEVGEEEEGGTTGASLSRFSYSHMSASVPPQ

[6] = organism: Homo sapiens; test: Binding affinity at ML1 receptor at 1 uM
[7] = target: T4, Muscarinic acetylcholine receptor M1 (Homo sapiens) (UniProt P11229); test: Binding affinity at muscarinic M1 receptor at 1 uM
T4 sequence (whole entry): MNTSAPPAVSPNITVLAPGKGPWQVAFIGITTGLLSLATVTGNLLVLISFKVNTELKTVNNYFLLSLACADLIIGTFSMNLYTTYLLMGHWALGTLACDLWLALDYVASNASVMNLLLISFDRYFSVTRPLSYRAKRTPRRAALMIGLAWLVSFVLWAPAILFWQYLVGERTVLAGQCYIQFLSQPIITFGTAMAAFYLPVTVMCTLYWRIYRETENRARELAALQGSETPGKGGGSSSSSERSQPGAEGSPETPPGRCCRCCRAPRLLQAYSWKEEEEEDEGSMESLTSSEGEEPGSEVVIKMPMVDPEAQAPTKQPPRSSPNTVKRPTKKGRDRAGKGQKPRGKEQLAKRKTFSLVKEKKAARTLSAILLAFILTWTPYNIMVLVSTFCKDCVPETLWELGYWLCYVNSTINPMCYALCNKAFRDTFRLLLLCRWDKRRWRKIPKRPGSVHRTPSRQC

[8] = target: Muscarinic acetylcholine receptor M3 (Homo sapiens) (UniProt P20309); test: Binding affinity at muscarinic M3 receptor at 1 uM
Chain of Muscarinic acetylcholine receptor M3 (Homo sapiens) (P20309 whole entry, looked up): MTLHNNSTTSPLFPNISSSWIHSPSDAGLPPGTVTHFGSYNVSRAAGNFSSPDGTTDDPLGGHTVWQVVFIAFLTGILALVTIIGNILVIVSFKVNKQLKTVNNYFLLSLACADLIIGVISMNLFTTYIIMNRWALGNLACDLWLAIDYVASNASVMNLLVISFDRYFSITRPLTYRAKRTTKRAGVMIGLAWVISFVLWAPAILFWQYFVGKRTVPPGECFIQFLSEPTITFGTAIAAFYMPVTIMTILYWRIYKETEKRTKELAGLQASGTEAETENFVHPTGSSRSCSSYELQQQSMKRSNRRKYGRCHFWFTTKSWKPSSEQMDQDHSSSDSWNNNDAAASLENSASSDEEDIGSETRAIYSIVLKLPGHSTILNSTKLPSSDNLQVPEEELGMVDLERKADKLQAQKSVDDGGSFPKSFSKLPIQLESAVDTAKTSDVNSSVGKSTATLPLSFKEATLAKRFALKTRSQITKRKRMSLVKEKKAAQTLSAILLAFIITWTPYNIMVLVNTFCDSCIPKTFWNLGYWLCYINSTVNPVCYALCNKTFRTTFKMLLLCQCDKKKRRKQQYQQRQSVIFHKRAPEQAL

[9] = target: T5, Neuromedin-K receptor (Homo sapiens) (UniProt P29371); test: Binding affinity at NK3 receptor at 1 uM
T5 sequence (whole entry): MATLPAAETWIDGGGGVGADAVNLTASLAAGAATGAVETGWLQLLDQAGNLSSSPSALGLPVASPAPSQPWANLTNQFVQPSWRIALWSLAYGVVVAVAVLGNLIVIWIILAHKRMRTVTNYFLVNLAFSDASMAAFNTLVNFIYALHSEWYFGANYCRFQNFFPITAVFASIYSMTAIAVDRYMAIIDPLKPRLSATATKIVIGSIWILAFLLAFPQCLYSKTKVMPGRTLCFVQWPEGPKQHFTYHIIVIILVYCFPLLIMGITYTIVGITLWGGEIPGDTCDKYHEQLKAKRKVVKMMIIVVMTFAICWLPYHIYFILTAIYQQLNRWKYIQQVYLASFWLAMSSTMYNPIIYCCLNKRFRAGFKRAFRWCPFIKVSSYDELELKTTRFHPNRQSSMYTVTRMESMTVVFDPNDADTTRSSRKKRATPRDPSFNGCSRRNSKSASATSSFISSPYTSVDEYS

[10] = target: T6, 5-hydroxytryptamine receptor 3A (Homo sapiens) (UniProt P46098); test: Binding affinity at 5HT3 receptor at 1 uM
T6 sequence (whole entry): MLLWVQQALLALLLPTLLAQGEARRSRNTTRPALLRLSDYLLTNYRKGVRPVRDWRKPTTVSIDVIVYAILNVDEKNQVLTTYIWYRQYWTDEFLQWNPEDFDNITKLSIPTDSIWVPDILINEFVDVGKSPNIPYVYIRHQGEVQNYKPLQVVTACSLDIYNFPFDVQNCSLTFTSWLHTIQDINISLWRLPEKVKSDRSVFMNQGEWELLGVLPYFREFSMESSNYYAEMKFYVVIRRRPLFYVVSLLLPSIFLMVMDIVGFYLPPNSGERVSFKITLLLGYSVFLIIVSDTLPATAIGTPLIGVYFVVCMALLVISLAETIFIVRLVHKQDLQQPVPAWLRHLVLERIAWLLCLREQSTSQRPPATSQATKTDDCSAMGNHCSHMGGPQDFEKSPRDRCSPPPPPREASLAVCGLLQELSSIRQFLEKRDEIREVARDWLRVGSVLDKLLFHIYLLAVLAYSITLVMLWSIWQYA

[11] = target: 5-hydroxytryptamine receptor 7 (Homo sapiens) (UniProt P34969); test: Binding affinity at 5HT7 receptor at 1 uM
Chain of 5-hydroxytryptamine receptor 7 (Homo sapiens) (P34969 whole entry): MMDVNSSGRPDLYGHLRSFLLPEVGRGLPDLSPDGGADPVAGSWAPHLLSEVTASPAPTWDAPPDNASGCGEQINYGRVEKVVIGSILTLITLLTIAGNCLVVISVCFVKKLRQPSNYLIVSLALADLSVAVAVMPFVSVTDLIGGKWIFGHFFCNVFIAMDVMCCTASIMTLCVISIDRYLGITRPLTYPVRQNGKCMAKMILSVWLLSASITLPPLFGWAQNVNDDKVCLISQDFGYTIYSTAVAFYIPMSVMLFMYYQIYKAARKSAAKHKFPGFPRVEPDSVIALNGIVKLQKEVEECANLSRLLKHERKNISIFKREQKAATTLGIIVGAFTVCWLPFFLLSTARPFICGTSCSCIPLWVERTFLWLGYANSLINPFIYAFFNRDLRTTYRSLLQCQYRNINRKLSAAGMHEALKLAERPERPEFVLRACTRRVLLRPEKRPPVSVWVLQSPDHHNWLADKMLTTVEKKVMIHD

[12] = organism: Homo sapiens; test: Binding affinity at somatostatin receptor at 1 uM
[13] = organism: Homo sapiens; test: Binding affinity for sodium channel at 1 uM

Measured: Activity

COc1ccc([C@@H]2CN(C)Cc3cc(OCCCN4CCOC[C@@H]4C)ccc32)cc1
inactive: all assays above

CSc1ccc(C2CN(C)Cc3cc(OCCCN4CCOCC4)ccc32)cc1 (racemic)
inactive: all assays above

CSc1ccc(C2CN(C)Cc3cc(OCCCN4CCC(F)CC4)ccc32)cc1 (racemic)
inactive: all assays above

Reference: ChEMBL document CHEMBL1138430, “Novel tetrahydroisoquinolines are histamine H3 antagonists and serotonin reuptake inhibitors” (Bioorg Med Chem Lett, 2007)
